# Structures can show the parent of a compound that is named as a salt.
# Assays:
# HSD17B13 enzyme = HSD17B13 enzyme (Homo sapiens (Human), UniProt Q7Z5P4); assay: hHSD17B13 IC50 Assay (FAC beta-estradiol), purified protein enzyme activity assay with NAD(P)H-Glo luciferase readout; type: biochemical; details: geometric mean, 12 μM FAC beta-estradiol, 500 μM NAD+, read-out: hHSD17B13_IC50 GMean IC50
# Procedure: The following protocols may of course be varied by those skilled in the art. hHSD17B13 IC50 Assay (FAC beta-estradiol)
# HSD17B13 enzyme inhibition potency of test compounds was determined using a purified protein biochemical enzyme activity assay, using NAD(P)H-Glo luciferase readout (Promega). HSD17B13 enzyme uses the oxidized form of nicotinamide adenine dinucleotide (NAD+) as a cofactor during metabolism of Beta-Estradiol (substrate) to […], while converting NAD+ to the reduced form (NADH). The Promega NAD(P)H-Glo™ assay is a homogeneous bioluminescent assay that generates a light signal from biochemical reactions that contain NADH (or nicotinamide adenine dinucleotide phosphate, NADPH). In the presence of NADH (or NADPH), the enzyme Reductase reduces a proluciferin reductase substrate to form luciferin. Luciferin then is quantified using Ultra-Glo™ Recombinant Luciferase (rLuciferase), and the light signal produced is proportional to the amount of NAD(P)H in the sample. […] The reaction was initiated by the addition of 2 μL/well purified HSD17B13 protein (30 nM FAC in assay buffer). Compound, substrate mix and HSD17B13 protein was incubated in the dark at room temperature for 2 hours before the addition of 3 μL/well NAD(P)H-Glo detection reagent, prepared from luciferase detection reagent and reductase/reductase substrate, as per manufacturer's instructions (Promega, G9061). Detection reagent was incubated in the dark for 1 hour at room temperature before plates were read on the Envision plate reader (Perkin Elmer) using a luminescent protocol. Data expressed as relative luminescent units (RLUs) were then normalized to control wells using Activity Base (IDBS). Zero percent effect (ZPE) was defined as RLUs generated from uninhibited HSD17B13 protein (vehicle control).
# wild type human HSD17B13 = wild type human HSD17B13 (Homo sapiens (Human), UniProt Q7Z5P4); assay: HEK_Beta-Est LCMS_IC50_Tekcel, whole-cell HEK-HSD17B13 inhibition assay, estrone production by LCMS; type: cell-based; details: geometric mean, HEK cells stably expressing wild type human HSD17B13, 25 μM FAC beta-estradiol, read-out: HEK_Beta-Est LCMS_IC50—Tekcel GMean IC50
# Chain of wild type human HSD17B13 (Q7Z5P4 20-300): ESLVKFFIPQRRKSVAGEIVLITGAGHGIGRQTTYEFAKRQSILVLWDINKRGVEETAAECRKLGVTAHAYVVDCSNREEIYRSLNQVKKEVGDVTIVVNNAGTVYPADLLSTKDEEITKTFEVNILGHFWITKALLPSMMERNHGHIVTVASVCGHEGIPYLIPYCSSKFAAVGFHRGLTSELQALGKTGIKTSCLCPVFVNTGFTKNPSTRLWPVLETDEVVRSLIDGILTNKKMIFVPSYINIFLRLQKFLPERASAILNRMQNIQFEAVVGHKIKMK
# Procedure, shortened: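 Readout was LCMS quantitation of estrone made from beta-estradiol with NAD+ as cofactor. Whole HEK-HSD17B13 cells were given compound for 1 hour, then the reaction for 2 hours, both at 37° C. Product area ratios were normalized to vehicle controls as zero percent effect.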
# Chain of HSD17B13 enzyme (Q7Z5P4 20-300): as above
IC50 (HSD17B13 enzyme),IC50 (wild type human HSD17B13),Structure (SMILES)
21 nM,440 nM,"COc1cc2cn([C@H]3CC[C@H](CNC(=O)c4cc(F)c(O)c(F)c4)CC3)nc2cn1 [Example 6, 3,5-Difluoro-4-hydroxy-N-{[(1r,4r)-4-(5-methoxy-2H-pyrazolo[3,4-c]pyridin-2-yl)cyclohexyl]methyl}benzamide]"
16 nM,390 nM,"O=C(NC[C@]12CC[C@](c3nc(-c4ccc(C(F)(F)F)nc4)no3)(CC1)CC2)c1cc(F)c(O)cc1F [Example 195, 2,5-difluoro-4-hydroxy-N-[(4-{3-[6-(trifluoromethyl)pyridin-3-yl]-1,2,4-oxadiazol-5-yl}bicyclo [2.2.2]octan-1-yl)methyl]benzamide]"
39 nM,470 nM,"O=C(NC[C@H]1CC[C@H](c2nc(-c3ccc(C(F)(F)F)nc3)no2)CC1)c1cc(F)c(O)cc1F [Example 197, 2,5-difluoro-4-hydroxy-N-{[(1r,4r)-4-{3-[6-(trifluoromethyl)pyridin-3-yl]-1,2,4-oxadiazol-5-yl}cyclohexyl]methyl} benzamide]"
11 nM,470 nM,"CC(C)(O)c1cncc(-c2ccc3cn([C@H]4CC[C@H](CNC(=O)c5cc(F)c(O)c(F)c5)CC4)nc3c2)c1 [Example 59, 3,5-difluoro-4-hydroxy-N-{[(1r,4r)-4-{6-[5-(2-hydroxypropan-2-yl)pyridin-3-yl]-2H-indazol-2-yl}cyclohexyl]methyl}benzamide]"
18 nM,320 nM,"COc1ncc(-c2cc3nn([C@H]4CC[C@H](CNC(=O)c5cc(F)c(O)c(F)c5)CC4)cc3cn2)cn1 [Example 8, 3,5-Difluoro-4-hydroxy-N-({(1r,4r)-4-[6-(2-methoxypyrimidin-5-yl)-2H-pyrazolo[4,3-c]pyridin-2-yl]cyclohexyl}methyl)benzamide]"
8.7 nM,170 nM,"O=C(NC[C@H]1CC[C@H](n2cc3ccc(-c4cnccn4)cc3n2)CC1)c1cc(F)c(O)c(F)c1F [Example 28, 2,3,5-trifluoro-4-hydroxy-N-({(1r,4r)-4-[6-(pyrazin-2-yl)-2H-indazol-2-yl]cyclohexyl}methyl)benzamide]"
11 nM,240 nM,"O=C(NC[C@H]1CC[C@H](n2cc3cnc(-c4ccncc4)cc3n2)CC1)c1cc(F)c(O)c(F)c1 [Example 188, 3,5-difluoro-4-hydroxy-N-({(1r,4r)-4-[6-(pyridin-4-yl)-2H-pyrazolo[4,3-c]pyridin-2-yl]cyclohexyl}methyl) benzamide]"
17 nM,310 nM,"O=C(NC[C@H]1CC[C@H](n2cc3ccc(F)cc3n2)CC1)c1cc(F)c(O)c(F)c1 [Example 16, 3,5-Difluoro-N-{[(1r,4r)-4-(6-fluoro-2H-indazol-2-yl)cyclohexyl]methyl}-4-hydroxybenzamide, ammonium salt]"
29 nM,280 nM,"O=C(NC[C@H]1CC[C@H](n2cc3cc(F)ccc3n2)CC1)c1cc(F)c(O)c(F)c1 [Example 133, 3,5-difluoro-N-{[(1r,4r)-4-(5-fluoro-2H-indazol-2-yl)cyclohexyl]methyl}-4-hydroxybenzamide, ammonium salt]"
4.3 nM,160 nM,"CC(C)n1cc(-c2ccc3cn([C@H]4CC[C@H](CNC(=O)c5cc(F)c(O)c(F)c5)CC4)nc3c2)cn1 [Example 40, 3,5-difluoro-4-hydroxy-N-{[(1r,4r)-4-{6-[1-(propan-2-yl)-1H-pyrazol-4-yl]-2H-indazol-2-yl}cyclohexyl]methyl} benzamide]"
9.5 nM,230 nM,"O=C(NC[C@H]1CC[C@H](n2cc3ccc(-c4ncc(C5CC5)cn4)cc3n2)CC1)c1cc(F)c(O)c(F)c1 [Example 54, N-({(1r,4r)-4-[6-(5-cyclopropylpyrimidin-2-yl)-2H-indazol-2-yl]cyclohexyl}methyl)-3,5-difluoro-4-hydroxybenzamide]"
6.5 nM,120 nM,"Cn1cc(-c2ccc3cn([C@H]4CC[C@H](CNC(=O)c5cc(F)c(O)c(F)c5)CC4)nc3c2)c(F)n1 [Example 51, 3,5-difluoro-N-({(1r,4r)-4-[6-(3-fluoro-1-methyl-1H-pyrazol-4-yl)-2H-indazol-2-yl]cyclohexyl}methyl)-4-hydroxybenzamide]"
21 nM,440 nM,"CN1CCn2ncc(-c3ccc4cn([C@H]5CC[C@H](CNC(=O)c6cc(F)c(O)c(F)c6)CC5)nc4c3)c21 [Example 41, 3,5-difluoro-4-hydroxy-N-({(1r,4r)-4-[6-(1-methyl-2,3-dihydro-1H-imidazo[1,2-b]pyrazol-7-yl)-2H-indazol-2-yl]cyclohexyl}methyl) benzamide]"
17 nM,430 nM,"O=C(NC[C@H]1CC[C@H](n2cc3cc(C(F)(F)F)ncc3n2)CC1)c1cc(F)c(O)c(F)c1 [Example 147, 3,5-difluoro-4-hydroxy-N-({(1r,4r)-4-[5-(trifluoromethyl)-2H-pyrazolo[3,4-c]pyridin-2-yl]cyclohexyl}methyl) benzamide, ammonium salt]"
5.8 nM,94 nM,"Cn1cc(-c2ccc3cn([C@H]4CC[C@H](CNC(=O)c5cc(F)c(O)c(F)c5)CC4)nc3c2)cn1 [Example 60, 3,5-difluoro-4-hydroxy-N-({(1r,4r)-4-[6-(1-methyl-1H-pyrazol-4-yl)-2H-indazol-2-yl]cyclohexyl}methyl) benzamide]"
10 nM,350 nM,"Cn1cc(-c2cc3cn([C@H]4CC[C@H](CNC(=O)c5cc(F)c(O)c(F)c5)CC4)nc3cn2)cn1 [Example 200, 3,5-difluoro-4-hydroxy-N-({(1r,4r)-4-[5-(1-methyl-1H-pyrazol-4-yl)-2H-pyrazolo[3,4-c]pyridin-2-yl]cyclohexyl}methyl) benzamide]"
33 nM,400 nM,"COc1ccc2nn([C@H]3CC[C@H](CNC(=O)c4cc(F)c(O)c(F)c4)CC3)cc2c1 [Example 129, 3,5-difluoro-4-hydroxy-N-{[(1r,4r)-4-(5-methoxy-2H-indazol-2-yl)cyclohexyl]methyl}benzamide]"
12 nM,340 nM,"O=C(NC[C@]12CC[C@](c3nc(-c4ccc(C(F)(F)F)nc4)no3)(CC1)CC2)c1cc(F)c(O)c(F)c1F [Example 196, 2,3,5-trifluoro-4-hydroxy-N-[(4-{3-[6-(trifluoromethyl)pyridin-3-yl]-1,2,4-oxadiazol-5-yl}bicyclo[2.2.2]octan-1-yl)methyl]benzamide]"
8.8 nM,370 nM,"O=C(NC[C@H]1CC[C@H](n2cc3cc(-c4cccnc4)ncc3n2)CC1)c1cc(F)c(O)c(F)c1 [Example 199, 3,5-difluoro-4-hydroxy-N-({(1r,4r)-4-[5-(pyridin-3-yl)-2H-pyrazolo[3,4-c]pyridin-2-yl]cyclohexyl}methyl) benzamide]"
13 nM,180 nM,"O=C(NC[C@]12CC[C@](c3nc(-c4ccc(C(F)(F)F)nn4)no3)(CC1)CC2)c1cc(F)c(O)c(F)c1 [Example 143, 3,5-difluoro-4-hydroxy-[(4-{3-[6-(trifluoromethyl)pyridazin-3-yl]-1,2,4-oxadiazol-5-yl}bicyclo[2.2.2]octan-1-yl)methyl]benzamide]"

Structure (SMILES),IC50 (HSD17B13 enzyme),IC50 (wild type human HSD17B13)
"O=C(NC[C@]12CC[C@](c3noc(-c4cccc(OS(=O)(=O)F)c4)n3)(CC1)CC2)c1cc(F)c(O)c(F)c1 [Example 190, 3-(3-{4-[(3,5-difluoro-4-hydroxybenzamido)methyl]bicyclo[2.2.2]octan-1-yl}-1,2,4-oxadiazol-5-yl) phenyl sulfurofluoridate]",8.6 nM,420 nM

# — patent US20240150334A1, “HSD17B13 INHIBITORS AND/OR DEGRADERS” (Pfizer Inc., priority 2022, published 2024)
